Measured values reported in ChEMBL document CHEMBL1152348, “Discovery of 3-aryl-5-aryl-1,2,4-oxadiazoles as a new series of apoptosis inducers. 2. Identification of more aqueous soluble analogs as potential anticancer agents” (Bioorg Med Chem Lett, 2009).
pEC50: −log10 of the molar value. Converted amounts (≈) assume the structure as drawn. The source made the active and inactive calls. The rule behind the calls is not given here.

Experiments:
[1] = system: T47D; experiment: Induction of apoptosis in human T47D cells assessed as caspase activation after 48 hrs; type: functional, cell-based
[2] = system: DLD-1; experiment: Induction of apoptosis in human DLD1 cells assessed as caspase activation after 48 hrs; type: functional, cell-based; settings: DLD-1, 48 h
[3] = system: NCI-H1299; experiment: Induction of apoptosis in human H1299 cells assessed as caspase activation after 48 hrs; type: functional, cell-based; settings: NCI-H1299, 48 h
[4] = system: T47D; experiment: Growth inhibition of human T47D cells after 48 hrs; type: functional
[5] = Growth inhibition of human H1299 cells after 48 hrs; type: functional; settings: NCI-H1299, 48 h
[6] = Solubility in DMSO/ethanol/cremophor EL/D5W solution; type: physicochemical
[7] = system: MX1; experiment: Antitumor activity against human MX1 cells xenografted in Crl:Nu/Nu-nuBR mouse assessed as inhibition of tumor growth at 20 mg/kg, iv daily once for day 1 to 5 and 8 to 12; type: functional, organism-based; parameters: dose 20 mg/kg
[8] = system: Mus musculus; experiment: Toxicity in Crl:Nu/Nu-nuBR mouse assessed as decrease of body weight at 20 mg/kg, iv daily once for day 1 to 5 and 8 to 12; type: organism-based; parameters: dose 20 mg/kg, route intravenous; scale not given: the % may be the effect or the level left; settings: in vivo
[9] = Solubility in ethanol/cremophor EL/D5W solution; type: physicochemical
[10] = Aqueous solubility in dextrose 5% in water; type: physicochemical

Row | Compound | pEC50 [1] | pEC50 [2] | pEC50 [3] | GI50 [4] [nM] | GI50 [5] [nM] | also measured
1 | Clc1ccc(-c2noc(-c3sccc3Cl)n2)cc1Cl | 5.85 | 6.43 | < 5.00 |  |  | 
2 | CC[C@]1(O)C[C@@H]2CN(CCc3c([nH]c4ccccc34)[C@@](C(=O)OC)(c3cc4c(cc3OC)N(C)[C@H]3[C@@](O)(C(=O)OC)[C@H](OC(C)=O)[C@]5(CC)C=CCN6CC[C@]43[C@@H]65)C2)C1 [VINBLASTINE] |  | 6.80 | 7.09 |  |  | 
3 | CN(C)c1cc(-c2noc(-c3sccc3Cl)n2)ccc1Cl | 5.68 | 6.27 | < 5.00 |  |  | 
4 | CC(=O)O[C@H]1C(=O)[C@@]2(C)[C@H]([C@H](OC(=O)c3ccccc3)[C@]3(O)C[C@H](OC(=O)[C@H](O)[C@@H](NC(=O)c4ccccc4)c4ccccc4)C(C)=C1C3(C)C)[C@]1(OC(C)=O)CO[C@@H]1C[C@@H]2O [PACLITAXEL] |  | 7.27 | 7.01 | 26 | 23 | 
5 | O=P(O)(O)OCc1cc(Cl)ccc1-c1noc(-c2occc2Br)n1 | < 5.00 |  | < 5.00 |  |  | 
6 | COc1cc2c(c(OC)c1OC)-c1ccc(OC)c(=O)cc1[C@@H](NC(C)=O)CC2 [COLCHICINE] |  | 6.74 |  | 140 | 63 | 
7 | Cc1cc(Cl)ccc1-c1noc(-c2occc2Br)n1 | 5.96 | 6.15 | < 5.00 | 130 | > 10000 | solubility [6]: 4800 µg/mL (≈ 14.1 mM); inhibition [7]: Active; Activity [8]: < 10%
8 | Nc1cc(-c2noc(-c3sccc3Cl)n2)ccc1Cl | 5.62 | 6.24 | < 5.00 |  |  | 
9 | Clc1ccc(-c2noc(-c3sccc3Cl)n2)cc1 | 5.92 | 6.36 | < 5.00 | 190 | > 10000 | 
10 | Clc1ccc(-c2noc(-c3occc3Br)n2)c(CBr)c1 | 5.66 |  | 5.64 |  |  | 
11 | OCc1cc(Cl)ccc1-c1noc(-c2occc2Br)n1 | 5.54 |  | < 5.00 | 500 | > 10000 | solubility [9]: 4000 µg/mL (≈ 11.2 mM)
12 | Nc1cc(Cl)ccc1-c1noc(-c2sccc2Cl)n1 | 5.51 | 5.96 | < 5.00 |  |  | 
13 | CN(C)CCNc1cc(-c2noc(-c3sccc3Cl)n2)ccc1Cl | < 5.00 | < 5.00 | < 5.00 |  |  | 
14 | O=P([O-])([O-])OCc1cc(Cl)ccc1-c1noc(-c2occc2Br)n1.[Na+].[Na+] |  |  |  |  |  | solubility [10]: 10000 µg/mL
15 | Cc1cc(-c2noc(-c3sccc3Cl)n2)ccc1Cl | 5.77 | 6.23 | < 5.00 |  |  | 
16 | Cc1cc(Cl)cnc1-c1noc(-c2occc2Br)n1 | 6.03 | 5.92 | < 5.00 | 660 | > 10000 | solubility [9]: 3800 µg/mL (≈ 11.2 mM)
17 | Clc1ccc(-c2noc(-c3sccc3Cl)n2)c(CBr)c1 | 5.35 | 5.96 | 5.07 |  |  | 
18 | Cc1cc(Cl)ccc1-c1noc(-c2sccc2Cl)n1 | 6.04 | 6.42 | < 5.00 |  |  | 
